From patent US20240306642A1, “Herbicidal Compositions” (SYNGENTA CROP PROTECTION AG, priority 2021, published 2024)

Columns and labels:
Format in all cases: in vivo
Setaria faberi (SETFA) = assay: Post-emergence efficacy, Setaria faberi; details: 15DAA, rate 3 g/ha, 100=total damage to plant, 0=no damage
Description: (§1) When active ingredients are combined, the activity to be expected (E) for any given active ingredient combination obeys the so-called Colby Formula and can be calculated as follows (Colby, S. R., Calculating synergistic and antagonistic responses of herbicide combination, Weeds, Vol. 15, pages 20-22; 1967): • ppm =milligrams of active ingredient (a.i.) per litre • X=% action by first active ingredient using p ppm of the active ingredient • Y=% action by second active ingredient using q ppm of the active ingredient.
(§2) According to Colby, the expected action of active ingredients A+B using p+q ppm of active ingredient is represented by the following formula: […]
If the action actually observed (O) is greater than the expected action E then the action of the combination is super-additive, i.e. there is a synergistic effect. […]
(§3) The efficacy of various compositions of the present invention were tested against plants including the following species: Echinochloa crus-gali (ECHCG), Lolium multiflorum(LOLMU), Setaria faberi (SETFA) and Digitaria insularis (TRCIN). The compositions are applied post-emergence, and the tests evaluated at certain days-after-application (DAA) as indicated. The tests were evaluated (100=total damage to plant; 0=no damage to plant), and the results are shown below in Tables B1 to B4.

[1] = tested on: Lolium multiflorum (LOLMU); assay: Post-emergence efficacy, Lolium multiflorum; details: 15DAA
Description: as §1, §2
(§4) If the action actually observed (O) is greater than the expected action E then the action of the combination is super-additive, i.e. there is a synergistic effect. In mathematical terms, synergism corresponds to a positive value for the difference of (O-E). In the case of purely complementary addition of activities (expected activity), said difference (O-E) is zero. A negative value of said difference (O-E) signals a loss of activity compared to the expected activity.
as §3

[2] = tested on: Echinochloa crus-gali (ECHCG); assay: Post-emergence efficacy, Echinochloa crus-gali; details: 16DAA
Description: as §1, §2, §4, §3

[3] = tested on: Digitaria insularis (TRCIN); assay: Post-emergence efficacy, Digitaria insularis; details: 13DAA
Description: as §1, §2, §4, §3

[4] = rate 1.88 g/ha, 100=total damage, 0=no damage

Compound: CCSC(C)CC1CC(=O)C(/C(CC)=N/OC/C=C/Cl)=C(O)C1 (stereo not shown) [Formula B1, clethodim]
- Observed (Setaria faberi (SETFA)): 25

Compound: CCCCOC(=O)[C@@H](C)Oc1ccc(Oc2ccc(C(F)(F)F)cn2)cc1 [Formula B4a, fluazifop-P-butyl]
- Observed ([1]; rate 8 g/ha): 68

Compound: COC(=O)[C@@H](C)Oc1ccc(Oc2ncc(C(F)(F)F)cc2Cl)cc1 [Formula B5a, haloxyfop-P-methyl]
- Observed ([2]; rate 8 g/ha): 13

Compound: CCc1cc(C)cc(CC)c1-c1c(OC(=O)C(C)(C)C)n2n(c1=O)CCOCC2 [Formula B6, pinoxaden]
- Observed ([3]; rate 0.94 g/ha): 0
- Observed [3, 4]: 20

Compound: CC#Cc1ccc(C2=C(OC(=O)OC)C3CCC(C3)C2=O)c(OC)c1 (stereo not shown) [Ic]
- Observed ([1]; rate 6.25 g/ha, 100=total damage, 0=no damage): 44
- Observed ([1]; rate 12.5 g/ha): 59
- Observed [3, 4]: 48
- Observed ([2]; rate 3.125 g/ha, 100=total damage, 0=no damage): 30
- Observed ([2]; rate 6.25 g/ha): 88
